Source: ChEMBL document CHEMBL1122816, “Synthesis and activity of 5-(aminomethylene)-1,3-cyclohexanediones: enolic analogues of gamma-aminobutyric acid” (J Med Chem, 1985)

Tests used:
Rattus norvegicus = species on record: Rattus norvegicus; experiment: The inhibitory concentration of compound against sodium dependent [3H]GABA synaptosomal uptake in rats; format: functional
GABA B receptor = GABA B receptor (Rattus norvegicus, UniProt O88871+Q9Z0U4); experiment: Displacement of [3H]baclofen from Gamma-aminobutyric acid type B receptor in rat brain membranes; format: cell membranes
[1] = molecular target: GABA-A receptor; anion channel; experiment: Displacement of [3H]GABA from Gamma-aminobutyric acid A (GABA-A) receptor in rat brain membranes; format: cell membranes

Sequence of GABA B receptor (Q9Z0U4 whole entry): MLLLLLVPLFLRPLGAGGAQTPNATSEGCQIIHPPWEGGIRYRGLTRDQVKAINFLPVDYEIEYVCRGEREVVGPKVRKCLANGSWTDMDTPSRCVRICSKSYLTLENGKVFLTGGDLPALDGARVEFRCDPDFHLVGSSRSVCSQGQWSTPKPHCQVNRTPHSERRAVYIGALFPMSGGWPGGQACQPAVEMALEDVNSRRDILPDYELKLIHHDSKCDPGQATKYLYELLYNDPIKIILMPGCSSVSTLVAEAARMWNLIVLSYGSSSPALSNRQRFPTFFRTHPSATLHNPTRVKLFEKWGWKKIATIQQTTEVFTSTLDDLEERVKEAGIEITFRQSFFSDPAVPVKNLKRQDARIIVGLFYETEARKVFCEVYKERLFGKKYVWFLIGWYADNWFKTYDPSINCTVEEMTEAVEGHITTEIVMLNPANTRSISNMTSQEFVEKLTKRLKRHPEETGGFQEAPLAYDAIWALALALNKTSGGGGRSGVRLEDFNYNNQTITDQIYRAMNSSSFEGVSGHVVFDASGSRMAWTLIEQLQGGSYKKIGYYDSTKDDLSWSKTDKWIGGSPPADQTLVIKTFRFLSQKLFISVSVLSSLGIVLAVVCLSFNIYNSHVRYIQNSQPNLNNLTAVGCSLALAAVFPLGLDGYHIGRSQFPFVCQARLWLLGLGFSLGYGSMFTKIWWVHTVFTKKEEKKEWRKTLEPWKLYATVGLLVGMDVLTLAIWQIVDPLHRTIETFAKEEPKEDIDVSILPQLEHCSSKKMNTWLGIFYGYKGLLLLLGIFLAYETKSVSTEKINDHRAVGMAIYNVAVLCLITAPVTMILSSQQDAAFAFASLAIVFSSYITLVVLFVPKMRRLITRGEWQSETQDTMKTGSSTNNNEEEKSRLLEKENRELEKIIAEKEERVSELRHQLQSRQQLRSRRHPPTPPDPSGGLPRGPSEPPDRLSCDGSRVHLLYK
Sequence of GABA B receptor (O88871 whole entry): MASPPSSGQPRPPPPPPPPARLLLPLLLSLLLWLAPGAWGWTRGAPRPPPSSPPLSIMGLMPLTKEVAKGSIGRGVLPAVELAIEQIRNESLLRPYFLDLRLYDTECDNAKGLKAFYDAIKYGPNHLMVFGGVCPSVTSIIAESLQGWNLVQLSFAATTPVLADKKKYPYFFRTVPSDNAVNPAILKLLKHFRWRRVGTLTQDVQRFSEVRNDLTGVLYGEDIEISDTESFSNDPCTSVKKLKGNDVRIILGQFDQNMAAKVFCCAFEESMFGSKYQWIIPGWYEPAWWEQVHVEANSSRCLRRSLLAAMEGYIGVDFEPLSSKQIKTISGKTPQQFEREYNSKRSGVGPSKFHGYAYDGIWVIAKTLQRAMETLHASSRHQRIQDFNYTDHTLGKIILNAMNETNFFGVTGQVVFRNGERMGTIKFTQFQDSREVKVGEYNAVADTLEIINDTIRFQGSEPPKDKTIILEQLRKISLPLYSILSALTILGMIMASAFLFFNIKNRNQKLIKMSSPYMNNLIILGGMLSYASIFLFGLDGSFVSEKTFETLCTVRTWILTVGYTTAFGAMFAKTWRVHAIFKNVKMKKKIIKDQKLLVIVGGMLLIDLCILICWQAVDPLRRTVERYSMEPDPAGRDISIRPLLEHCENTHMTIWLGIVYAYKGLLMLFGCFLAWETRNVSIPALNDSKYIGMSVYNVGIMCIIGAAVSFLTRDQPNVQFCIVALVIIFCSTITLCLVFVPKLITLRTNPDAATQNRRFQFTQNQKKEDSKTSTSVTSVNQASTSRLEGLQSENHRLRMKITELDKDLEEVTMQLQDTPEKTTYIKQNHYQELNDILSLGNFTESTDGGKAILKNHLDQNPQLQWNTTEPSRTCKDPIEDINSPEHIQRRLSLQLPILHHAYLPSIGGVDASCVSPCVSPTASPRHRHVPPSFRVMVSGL

| SMILES | IC50 (Rattus norvegicus) [µM] | IC50 (GABA B receptor) [µM] | IC50 [1] [µM] |
| --- | --- | --- | --- |
| NCC1CC(=O)C=C(O)C1 (stereo not drawn) | > 100 | > 100 | 65 |
| NCC(CC(=O)O)c1ccc(Cl)cc1 (stereo not drawn) [BACLOFEN] | 1.8 |  | 0.03 |
| O=C(O)C1CCCNC1 (stereo not drawn) [NIPECOTIC ACID] | 5.6 | > 100 | > 100 |
